# Test results: US10071074B2, “Thieno-indole moieties and methods of treating using the same” (NERVIANO MEDICAL SCIENCES S.R.L., priority 2012, dated 2018)
# Where a name gives a salt, the structure may show the parent alone.
# Biological target: cathepsin B (Homo sapiens, UniProt P07858)
# Experiment: Release of a drug moiety from a conjugate in presence of cathepsin
# Assay type: biochemical
# Details: 0.2 unit cathepsin B, sodium acetate buffer pH 5.5, 1 mM Cys, 2 hours at 40° C., HPLC ESI-MS analysis
# Procedure: The conjugate A1 was incubated with 0.2 unit of cathepsin B in sodium acetate buffer pH 5.5 and 1 mM Cys for 2 hours at 40° C.
# Disappearance of the conjugate A1 and release of the corresponding compound of formula (II), i.e. compd. 37, as well as of its precursor A3, confirms the breaking of the Z peptidic linker of the conjugate.
row,Structure (SMILES),release of the compound of formula (II) (compd. 37) from the conjugate
1,Cc1csc2c(OC(=O)N(C)CCN(C)C(=O)OCc3ccc(NC(=O)[C@H](CCCNC(N)=O)NC(=O)[C@@H](NC(=O)CCCCCN4C(=O)CC(SC[C@H](N)C(=O)O)C4=O)C(C)C)cc3)cc3c(c12)[C@H](CCl)CN3C(=O)c1cc2cc(OCCN3CCCC3)ccc2[nH]1 (stereo partly shown) [conjugate A1],Complete release

# System: A2780 human ovarian cancer cells
# Experiment: In vitro cell proliferation assay (CellTiter-Glo)
# Assay type: cell-based
# Details: A2780 human ovarian cancer cells, 72 h treatment, CellTiter-Glo; read-out: IC50 value
# Procedure: A2780 human ovarian and MCF7 human breast cancer cells (1250 cells/well) were seeded in white 384 well-plates in complete medium (RPMI1640 or EMEM plus 10% Fetal bovine serum) and treated with compounds dissolved in 0.1% DMSO, 24 h after seeding. The cells were incubated at 37° C. and 5% CO2 and after 72 h the plates were processed using CellTiter-Glo assay (Promega) following the manufacturer's instruction.
# CellTiter-Glo is a homogenous method based on the quantification of the ATP present, an indicator of metabolitically active cells. ATP is quantified using a system based on luciferase and D-luciferin resulting into light generation. The luminescent signal is proportional to the number of cells present in culture.
# Briefly, 25 μL/well of reagent solution are added to each well and after 5 minutes shaking microplates are read by a luminometer. The luminescent signal is proportional to the number of cells present in culture.
row,Structure (SMILES),IC50 [nM]
1,Cc1csc2c(O)cc3c(c12)[C@H](CCl)CN3C(=O)c1ccc2c(NC(=O)c3ccc4cc[nH]c4c3)c[nH]c2c1 [Compd. 1],< 50
2,"Cc1csc2c1[C@@]13C[C@@H]1CN(C(=O)c1ccc4c(NC(=O)c5ccc6cc[nH]c6c5)c[nH]c4c1)C3=CC2=O [Compd. 5, N-(6-{[(3bR,4aS)-3-methyl-8-oxo-4a,5-dihydro-4H-cyclopropa[c]thieno[3,2-e]indol-6(8H)-yl]carbonyl}-1H-indol-3-yl)-1H-indole-6-carboxamide]",< 50
3,"Cc1csc2c1[C@]13C[C@H]1CN(C(=O)/C=C/c1c[nH]c4ncccc14)C3=CC2=O [Compd. 7, (3bS,4aR)-3-methyl-6-[(2E)-3-(1H-pyrrolo[2,3-b]pyridin-3-yl)prop-2-enoyl]-4,4a,5,6-tetrahydro-8H-cyclopropa[c]thieno[3,2-e]indo-8-one]",< 50
4,Cc1csc2c(O)cc3c(c12)[C@H](CCl)CN3C(=O)c1cc2cc(NC(=O)c3cc4cc(NC(=O)OC(C)(C)C)ccc4[nH]3)ccc2[nH]1 [Compd. 18],< 0.01
5,"Cc1csc2c(O)cc3c(c12)[C@H](CCl)CN3C(=O)c1cc2cc(OCCN3CCCC3)ccc2[nH]1 [Compd. 37, [(8S)-8-(chloromethyl)-4-hydroxy-1-methyl-7,8-dihydro-6H-thieno[3,2-e]indol-6-yl]{5-[2-(pyrrolidin-1-yl)ethoxy]-1H-indol-2-yl}methanone hydrochloride]",< 0.01
6,"Cc1csc2c1[C@]13C[C@H]1CN(C(=O)c1cc(NC(=O)c4cc(NC(=O)c5cc([N+](=O)[O-])cn5C)cn4C)cn1C)C3=CC2=O [compound 6, 1-methyl-N-(1-methyl-5-{[(3bS,4aR)-3-methyl-8-oxo-4a,5-dihydro-4H-cyclopropa[c]thieno[3,2-e]indol-6(8H)-yl]carbonyl}-1H-pyrrol-3-yl)-4-4{[(1-methyl-4-nitro-1H-pyrrol-2-yl)carbonyl]amino}-1H-pyrrole-2-carboxamide]",< 50
7,"Cc1csc2c1[C@@]13C[C@@H]1CN(C(=O)/C=C/c1c[nH]c4ncccc14)C3=CC2=O [compound 8, (3bR,4aS)-3-methyl-6-[(2E)-3-(1H-pyrrolo[2,3-b]pyridin-3-yl)prop-2-enoyl]-4,4a,5,6-tetrahydro-8H-cyclopropa[c]thieno[3,2-e]indol-8-one]",< 0.01
8,"Cc1csc2c1[C@]13C[C@H]1CN(C(=O)Nc1cc(C(=O)Nc4cc(C(=O)Nc5cc(C(=O)NCCC(N)=O)n(C)c5)n(C)c4)n(C)c1)C3=CC2=O [compound 9, (3bS,4aR)-N-(5-{[5-({5-[(3-amino-3-oxopropyl)carbamoyl]-1-methyl-1H-pyrrol-3-yl}carbamoyl)-1-methyl-1H-pyrrol-3-yl]carbamoyl}-1-methyl-1H-pyrrol-3-yl)-3-methyl-8-oxo-4a,5-dihydro-4H-cyclopropa[c]thieno[3,2-e]indole-6(8H)-carboxamide]",< 50
9,"Cc1csc2c(O)cc3c(c12)[C@H](CCl)CN3C(=O)c1cc2cc(NC(=O)c3cc4cc(OCCN5CCCC5)ccc4[nH]3)ccc2[nH]1 [compound 17, N-(2-{[(8S)-8-(chloromethyl)-4-hydroxy-1-methyl-7,8-dihydro-6H-thieno[3,2-e]indol-6-yl]carbonyl}-1H-indol-5-yl)-5-[2-(pyrrolidin-1-yl)ethoxy]-1H-indole-2-carboxamide]",< 0.1
10,"Cc1csc2c1[C@@]13C[C@@H]1CN(C(=O)c1cc4cc(NC(=O)c5cc6cc(NC(=O)OC(C)(C)C)ccc6[nH]5)ccc4[nH]1)C3=CC2=O [compound 20, tert-butyl {2-[(2-{[(3bR,4aS)-3-methyl-8-oxo-4a,5-dihydro-4H-cyclopropa[c]thieno[3,2-e]indol-6(8H)-yl]carbonyl}-1H-indol-5-yl)carbamoyl]-1H-indol-5-yl}carbamate]",< 0.1

# Same assay, conditions: Homo sapiens, A2780, 72 h, read-out: IC50 value
row,Structure (SMILES),IC50 [nM]
1,"Cc1csc2c(OC(=O)N3CCN(C)CC3)cc3c(c12)[C@H](CCl)CN3C(=O)c1cc2cc(NC(=O)c3cc4cc(NC(=O)OC(C)(C)C)ccc4[nH]3)ccc2[nH]1 [Compd. 22, (8S)-6-({5-[({5-[(tert-butoxycarbonyl)amino]-1H-indol-2-yl}carbonyl)amino]-1H-indol-2-yl}carbonyl)-8-(chloromethyl)-1-methyl-7,8-dihydro-6H-thieno[3,2-e]indol-4-yl 4-methylpiperazine-1-carboxylate]",< 0.1
2,"Cc1csc2c(OC(=O)N3CCN(C)CC3)cc3c(c12)[C@H](CCl)CN3C(=O)c1cc2cc(NC(=O)c3cc4cc(N)ccc4[nH]3)ccc2[nH]1 [compound 23, (8S)-6-[(5-{[(5-amino-1H-indol-2-yl)carbonyl]amino}-1H-indo-2-yl)carbonyl]-8-(chloromethyl)-1-methyl-7,8-dihydro-6H-thieno[3,2-e]indol-4-yl 4-methylpiperazine-1-carboxylate hydrochloride]",< 50
